Values quoted from earlier work, collected in patent publication EP3957364A1, “A BINDING MOLECULE SPECIFICALLY BINDING TO HUMAN CD4 FOR USE IN THE TREATMENT OF PULMONARY DISEASES” (Fraunhofer-Gesellschaft zur Förderung der angewandten …, priority 2020, dated 2022).

Molecular target: CD4 (Homo sapiens, UniProt P01730)
Details: reported, no source named

TbYICbEbVEDQKAcEE
inhibition of CD4 binding of gp120 and MAX.16H5 IgG1 (or 16H5.chimlgG4): inhibit CD4 binding of both gp120 and MAX.16H5 IgG1
